# Literature values in US20090062246A1, “THERAPEUTIC TREATMENT-014” (ASTRAZENECA AB, priority 2007, published 2009).
# Target: T1, ETB receptor (Homo sapiens, UniProt P24530)
# T1 sequence (P24530 27-442): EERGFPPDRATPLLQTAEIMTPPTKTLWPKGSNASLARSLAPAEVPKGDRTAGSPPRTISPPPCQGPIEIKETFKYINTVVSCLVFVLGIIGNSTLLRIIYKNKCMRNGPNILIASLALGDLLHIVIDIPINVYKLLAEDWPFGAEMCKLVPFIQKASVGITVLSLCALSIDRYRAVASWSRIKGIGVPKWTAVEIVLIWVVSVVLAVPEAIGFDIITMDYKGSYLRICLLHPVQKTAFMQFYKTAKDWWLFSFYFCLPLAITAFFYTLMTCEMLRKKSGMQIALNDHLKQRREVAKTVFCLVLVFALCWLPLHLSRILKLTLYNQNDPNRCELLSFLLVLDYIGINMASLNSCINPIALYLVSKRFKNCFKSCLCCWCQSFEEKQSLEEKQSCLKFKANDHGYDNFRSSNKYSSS
# Conditions: described in WO04/018044
smiles,measurement,value
"COc1nc(C)cnc1NS(=O)(=O)c1cccnc1-c1ccc(-c2nnco2)cc1 [Compound (I), N-(3-methoxy-5-methylpyrazin-2-yl)-2-(4-[1,3,4-oxadiazol-2-yl]phenyl)pyridine-3-sulphonamide]",affinity for the ETB receptor,no measurable affinity
